Read-outs that look alike come from different tables or passages of the source.
What was measured:
p38α MAPK = p38α MAPK (Homo sapiens (Human), UniProt Q16539); assay: Radioactive (33P-labelled ATP) filter binding assay of p38α MAPK activity; assay type: biochemical
Description: (§1) A number of compounds were also assessed for the inhibition of p38α MAPK activity (www.kinase-screen.mrc.ac.uk) in which a radioactive (^33P-labelled ATP) filter binding assay was used to directly measure phosphate incorporation. Table 1 summarises the binding affinities of the synthesised compounds to both forms of the enzyme as well as the inhibitory activities against p38α MAPK. By way of enabling a comparison with a non-thiophene compound the biological testing was also carried out for known inhibitor RWJ67657, shown in table 1.

[1] = target: inactive non-phosphorylated p38α MAPK (Homo sapiens (Human), UniProt Q16539); assay: Fluorescence polarisation (FP) binding assay, inactive enzyme
Description: as §1
(§2) FP signals were measured with a PHERAstar microplate reader (BMG Labtech) using black, low-binding half-area 96 well plates (Corning). Each binding data point was carried out in duplicate or triplicate. Data were recorded in millipolarisation (mP) units and measured at an excitation wavelength of 485 nm and an emission wavelength of 520 nm. Tris(hydroxymethyl)aminomethane (Tris) assay buffer was used in all binding experiments and consisted of 10 mM Tris, […] potassium chloride, and 3.5 mM 3-((3-cholamidopropyl)dimethylammonium)-1-propanesulfonate (Chaps) at pH 8.0.
(§3) Test compounds were prepared from dimethylsulfoxide stocks (10 mM). […] Plates were incubated at room temperature for 1 hour and FP signals were recorded. For binding experiments to active p38α MAPK, the FP signals were recorded after 2 hours incubation at room temperature. Data is represented as mean±SEM from two to three independent experiments.

[2] = target: active phosphorylated p38α MAPK (Homo sapiens (Human), UniProt Q16539); assay: Fluorescence polarisation (FP) binding assay, active enzyme
Description: as §1, §2, §3

[3] = target: p38α MAPK activation (phosphorylation) by MKK6 (Homo sapiens (Human), UniProt Q16539); assay: In vitro activation assay (phosphorylation of p38α MAPK by MKK6, western blot); assay type: biochemical; details: 10 μM concentration
Description: The assay was analysed by immunoblotting using antibodies against pan p38 MAPK and activated (phosphorylated) p38α MAPK. […] The reaction is initiated by the addition of ATP and MKK6 and proceeds for 15 minutes.
The assay was analysed by immunoblotting using antibodies against pan p38 MAPK and phosphorylated p38α MAPK.
The reaction was started by the addition of active MKK6 (5 ng) and ATP (100 μM). After 30 minutes incubation at room temperature, the reaction was stopped with ethylenediaminetetraacetic acid (EDTA) (10 mM). Phosphorylation of p38 MAPK was analysed by Western blotting.
Reaction samples were mixed 1:1 with Laemmli loading buffer, including β-mercaptoethanol (Biorad). Samples were heated at 95° C. for 5 minutes and 80 ng of protein was resolved using sodium dodecyl sulfate polyacrylamide gel electrophoresis (SDS-PAGE) gels (Biorad) at 200 V for 90 minutes. Proteins were transferred (100 V, 1 hour) to a polyvinylidene difluoride (PVDF) membrane (Merck). Membranes were incubated in blocking buffer (5% skim milk in Tris-buffered saline with Tween 20 (TBST), 1 hour, room temperature) and washed in TBST. Membranes were incubated with primary antibodies against total and phosphorylated p38 MAPK (1:1,000, Cell Signaling Technology) overnight at 4° C. Membranes were washed 4×15 minutes in TBST and probed with a secondary anti-mouse antibody at 1:2,000 dilution for 1 hour at room temperature, followed by washing in TBST (4×15 minutes). Signal detection was done with Western Lightning plus-ECL enhanced chemiluminescent substrate (Perkin Elmer) with the ChemiDoc Imaging System (BioRad).

[4] = Table 1, average of two experiments, read-out: IC50 (μM, mean)
[5] = read-out: IC50 (inhibitory activity against p38α MAPK)
[6] = Table 1, read-out: Ki (μM, mean ± SEM) inactive p38α
[7] = Table 6, read-out: Ki ± SEM (μM) to inactive p38α
[8] = Table 1, read-out: Ki (μM, mean ± SEM) active p38α
[9] = Table 6, read-out: Ki ± SEM (μM) to active p38α
[10] = Table 5, read-out: Ki ± SEM (μM) to inactive p38α MAPK
[11] = Table 5, read-out: Ki ± SEM (μM) to active p38α MAPK
[12] = read-out: Ki to active p38α MAPK

inactive non-phosphorylated p38α MAPK, sequence (Q16539 whole entry): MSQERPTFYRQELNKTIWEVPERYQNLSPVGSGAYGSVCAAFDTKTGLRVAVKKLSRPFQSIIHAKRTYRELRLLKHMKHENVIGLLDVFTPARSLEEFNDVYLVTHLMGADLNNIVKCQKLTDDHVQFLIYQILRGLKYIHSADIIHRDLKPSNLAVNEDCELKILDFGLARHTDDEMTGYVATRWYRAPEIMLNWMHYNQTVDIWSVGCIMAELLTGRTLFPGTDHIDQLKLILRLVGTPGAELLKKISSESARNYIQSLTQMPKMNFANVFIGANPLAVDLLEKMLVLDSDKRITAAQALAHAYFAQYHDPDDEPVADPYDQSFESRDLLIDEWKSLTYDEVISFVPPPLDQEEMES
p38α MAPK, sequence (Q16539 whole entry): as above
p38α MAPK activation (phosphorylation) by MKK6, sequence (Q16539 whole entry): as above
active phosphorylated p38α MAPK, sequence (Q16539 whole entry): as above

Row | Compound | Ki [1, 7] | Ki [2, 9] | Ki [1, 10] | Ki [2, 11] | also measured
1 | OCCC#Cc1sc(-c2ccc(F)cc2)c(-c2ccncc2)c1C(O)CCc1ccccc1 (stereo not drawn) [Compound 4.6, 4-(5-(4-Fluorophenyl)-3-(1-hydroxy-3-phenylpropyl)-4-(pyridin-4-yl)thiophen-2-yl)but-3-yn-1-ol] | > 10 µM | 3.9 µM | – | – | IC50 (p38α MAPK; [4]): 4.72 µM; IC50 (p38α MAPK; Table 6, read-out: IC50 (mean)): 4.72 µM; IC50 (p38α MAPK; [5]): 4.72 µM; Ki [1, 6]: > 10 µM; Ki [2, 8]: 3.85 µM
2 | OCCC#Cc1nc(-c2ccc(F)cc2)c(-c2ccncc2)n1CCCc1ccccc1 [RWJ67657, reference compound] | 0.21 ± 0.04 µM | 0.013 ± 0.006 µM | 0.21 ± 0.04 µM | 0.013 ± 0.006 µM | Ki [1, 6]: 0.21 ± 0.04 µM; Ki [2, 8]: 0.013 ± 0.006 µM; inhibition of p38α MAPK activation (phosphorylation) [3]: inhibition of p38α MAPK activation
3 | O=C(c1ccccc1)c1cc(-c2ccncc2)c(-c2ccc(F)cc2)s1 [Compound 5.16, (5-(4-Fluorophenyl)-4-(pyridin-4-yl)thiophen-2-yl) (phenyl)methanone] | 5 ± 2 µM | 2.8 ± 0.1 µM | 5 ± 2 µM | 2.8 ± 0.1 µM | inhibition of p38α MAPK activation (phosphorylation) [3]: inhibition of p38α MAPK activation
4 | Nc1nc(F)c(F)c(-c2cc(-c3ccncc3)c(-c3ccc(F)cc3)s2)c1F [Compound 5.20, 3,5,6-Trifluoro-4-(5-(4-fluorophenyl)-4-(pyridin-4-yl)thiophen-2-yl)pyridin-2-amine] | 0.66 ± 0.06 µM | 0.21 ± 0.01 µM | 0.66 ± 0.06 µM | 0.21 ± 0.01 µM | Ki [2, 12]: 0.2 µM; inhibition of p38α MAPK activation (phosphorylation) [3]: inhibition of p38α MAPK activation
5 | Fc1ccc(-c2scc(CCCc3ccccc3)c2-c2ccncc2)cc1 [Compound 4.18, 4-(2-(4-Fluorophenyl)-4-(3-phenylpropyl)thiophen-3-yl)pyridine] | 1.5 ± 0.5 µM | 0.72 ± 0.03 µM | – | – | IC50 (p38α MAPK; [4]): 0.27 µM; IC50 (p38α MAPK; Table 6, read-out: IC50 (mean)): 0.27 µM; IC50 (p38α MAPK; [5]): 0.27 µM; Ki [1, 6]: 1.5 ± 0.5 µM; Ki [2, 8]: 0.72 ± 0.03 µM
6 | OC(CCc1ccccc1)c1csc(-c2ccc(F)cc2)c1-c1ccncc1 (stereo not drawn) [Compound 4.17, 1-(5-(4-Fluorophenyl)-4-(pyridin-4-yl)thiophen-3-yl)-3-phenylpropan-1-ol] | 1.9 ± 0.3 µM | 0.99 ± 0.09 µM | – | – | IC50 (p38α MAPK; [4]): 0.26 µM; IC50 (p38α MAPK; Table 6, read-out: IC50 (mean)): 0.26 µM; IC50 (p38α MAPK; [5]): 0.26 µM; Ki [1, 6]: 1.9 ± 0.3 µM; Ki [2, 8]: 0.99 ± 0.09 µM
7 | CC(=O)Nc1ccc(-c2c(C#CCCO)sc(-c3ccc(F)cc3)c2-c2ccncc2)cc1 [Compound 3.42, N-(4-(5-(4-fluorophenyl)-2-(4-hydroxybut-1-yn-1-yl)-4-(pyridin-4-yl)thiophen-3-yl)phenyl)acetamide] | > 10 µM | > 10 µM | – | – | –
8 | Fc1ccc(-c2sc(-c3ccco3)cc2-c2ccncc2)cc1 [Compound 5.18, 4-(2-(4-Fluorophenyl)-5-(furan-2-yl)thiophen-3-yl)pyridine] | > 10 µM | 1.7 µM | > 10 µM | 1.7 µM | –
9 | CC(=O)c1cc(-c2ccncc2)c(-c2ccc(F)cc2)s1 [Compound 5.15, 1-(5-(4-Fluorophenyl)-4-(pyridin-4-yl)thiophen-2-yl)ethanone] | 6.4 ± 0.6 µM | 1.4 µM | 6.4 ± 0.6 µM | 1.4 µM | –
10 | NC(=O)c1ccc(-c2c(C#CCCO)sc(-c3ccc(F)cc3)c2-c2ccncc2)cc1 [Compound 3.36, 4-(5-(4-Fluorophenyl)-2-(4-hydroxybut-1-yn-1-yl)-4-(pyridin-4-yl)thiophen-3-yl)benzamide] | > 10 µM | 2 ± 1 µM | – | – | –
11 | Fc1ccc(-c2sc(I)cc2-c2ccncc2)cc1 [Compound 5.1, 4-(2-(4-Fluorophenyl)-5-iodothiophen-3-yl)pyridine] | 1.9 ± 0.4 µM | 2.3 µM | 1.9 ± 0.4 µM | 2.3 µM | –
12 | O=C(NCCO)c1cccc(-c2c(C#CCCO)sc(-c3ccc(F)cc3)c2-c2ccncc2)c1 [Compound 3.37, 3-(5-(4-Fluorophenyl)-2-(4-hydroxybut-1-yn-1-yl)-4-(pyridin-4-yl)thiophen-3-yl)-N-(2-hydroxyethyl)benzamide] | 1.9 ± 0.2 µM | 2 ± 1 µM | – | – | –
13 | Cc1ccc(S(=O)(=O)Nc2ccc(-c3c(C#CCCO)sc(-c4ccc(F)cc4)c3-c3ccncc3)cc2)cc1 [Compound 3.46, N-(4-(5-(4-fluorophenyl)-2-(4-hydroxybut-1-yn-1-yl)-4-(pyridin-4-yl)thiophen-3-yl)phenyl)-4-methylbenzenesulfonamide] | > 10 µM | > 10 µM | – | – | –
14 | NC(=O)c1cccc(-c2c(C#CCCO)sc(-c3ccc(F)cc3)c2-c2ccncc2)c1 [Compound 3.35, 3-(5-(4-Fluorophenyl)-2-(4-hydroxybut-1-yn-1-yl)-4-(pyridin-4-yl)thiophen-3-yl)benzamide] | > 10 µM | 2.2 ± 0.3 µM | – | – | –
15 | OCCC#Cc1sc(-c2ccc(F)cc2)c(-c2ccncc2)c1-c1ccc(CO)cc1 [Compound 3.34, 4-(5-(4-Fluorophenyl)-3-(4-(hydroxymethyl)phenyl)-4-(pyridin-4-yl)thiophen-2-yl)but-3-yn-1-ol] | > 10 µM | 3.5 µM | – | – | –
16 | COC(=O)c1cccc(-c2c(C#CCCO)sc(-c3ccc(F)cc3)c2-c2ccncc2)c1 [Compound 3.29, Methyl 3-(5-(4-fluorophenyl)-2-(4-hydroxybut-1-yn-1-yl)-4-(pyridin-4-yl)thiophen-3-yl)benzoate] | > 10 µM | 3 µM | – | – | –
17 | O=C(O)c1cc(-c2ccncc2)c(-c2ccc(F)cc2)s1 [Compound 5.12, 5-(4-Fluorophenyl)-4-(pyridin-4-yl)thiophene-2-carboxylic acid] | 17 ± 2 µM | 1.4 µM | 17 ± 2 µM | 1.4 µM | –
18 | Cc1ccc(S(=O)(=O)Nc2cccc(-c3c(C#CCCO)sc(-c4ccc(F)cc4)c3-c3ccncc3)c2)cc1 [Compound 3.45, N-(3-(5-(4-fluorophenyl)-2-(4-hydroxybut-1-yn-1-yl)-4-(pyridin-4-yl)thiophen-3-yl)phenyl)-4-methylbenzenesulfonamide] | > 10 µM | > 10 µM | – | – | –
19 | Nc1ccc(-c2c(C#CCCO)sc(-c3ccc(F)cc3)c2-c2ccncc2)cc1 [Compound 3.40, 4-(3-(4-Aminophenyl)-5-(4-fluorophenyl)-4-(pyridin-4-yl)thiophen-2-yl)but-3-yn-1-ol] | > 10 µM | > 10 µM | – | – | –
20 | NCCC#Cc1cc(-c2ccncc2)c(-c2ccc(F)cc2)s1 [Compound 5.7, 4-(5-(4-Fluorophenyl)-4-(pyridin-4-yl)thiophen-2-yl)but-3-yn-1-amine] | 1.1 ± 0.2 µM | 0.19 ± 0.04 µM | 1.1 ± 0.2 µM | 0.19 ± 0.04 µM | Ki [2, 12]: 0.19 µM
21 | COC(=O)c1ccccc1-c1c(C#CCCO)sc(-c2ccc(F)cc2)c1-c1ccncc1 [Compound 3.28, Methyl 2-(5-(4-fluorophenyl)-2-(4-hydroxybut-1-yn-1-yl)-4-(pyridin-4-yl)thiophen-3-yl)benzoate] | > 10 µM | 8.7 µM | – | – | –
22 | O=C(Nc1ccc(-c2c(C#CCCO)sc(-c3ccc(F)cc3)c2-c2ccncc2)cc1)c1ccccc1 [Compound 3.44, N-(4-(5-(4-fluorophenyl)-2-(4-hydroxybut-1-yn-1-yl)-4-(pyridin-4-yl)thiophen-3-yl)phenyl)benzamide] | > 10 µM | > 10 µM | – | – | –
23 | Fc1ccc(-c2sccc2-c2ccncc2)cc1 [Compound 3.2, 4-(2-(4-Fluorophenyl)thiophen-3-yl)pyridine] | 5 ± 0.4 µM | 0.6 ± 0.1 µM | 5 ± 0.4 µM | 0.6 ± 0.1 µM | –
24 | O=C(c1cc(-c2ccncc2)c(-c2ccc(F)cc2)s1)N1CCNCC1 [Compound 5.14, (5-(4-Fluorophenyl)-4-(pyridin-4-yl)thiophen-2-yl) (piperazin-1-yl)methanone] | 6.3 ± 0.4 µM | 0.9 ± 0.1 µM | 6.3 ± 0.4 µM | 0.9 ± 0.1 µM | –

Reference: US11273153B2, “MAPK inhibitors” (EverBrilliant Pharma Pty Ltd, priority 2014, dated 2022)
